The record followed here is patent US9249102B2 (priority 2012, dated 2016).

This experiment has as its system Haemonchus contortus. Put plainly: Method A: Haemonchus contortus L1 larvae, microtitre plate screen. The conditions noted are these: 96 h, read-out: motility inhibition.
As a reminder, the inhibition is how much of the control response was suppressed. Regarding `O=C(CO[C@H]1CC[C@H](Nc2ccc([N+](=O)[O-])c(C(F)(F)F)c2)CC1)N1CCN(Cc2cc3cc(F)cc(F)c3o2)CC1` [Compound 375], the inhibition at 5 µg/mL was not below 90%.
Consider `O=C(CO[C@H]1CC[C@H](Nc2ccc([N+](=O)[O-])c(C(F)(F)F)c2)CC1)N1CCN(c2nc3cc(C(F)(F)F)ccc3o2)CC1` [Compound 400, 2-[4-(4-nitro-3-trifluoromethyl-phenylamino)-cyclohexyloxy]-1-[4-(5-trifluoromethyl-benzooxazol-2-yl)-piperazin-1-yl]-ethanone], for which the inhibition at 5 µg/mL was not below 90%.
Then `O=C(CO[C@H]1CC[C@H](Nc2ccc([N+](=O)[O-])c(C(F)(F)F)c2)CC1)N1CCN(c2nc3cc(OC(F)(F)F)ccc3o2)CC1` [Compound 401, 2-[4-(4-nitro-3-trifluoromethyl-phenylamino)-cyclohexyloxy]-1-[4-(5-trifluoromethoxy-benzooxazol-2-yl)-piperazin-1-yl]-ethanone], with not below 90%; and `O=C(COc1ccc(Nc2ccc([N+](=O)[O-])c(C(F)(F)F)c2)cc1)N1CCN(C(=O)c2cc3cc(C(F)(F)F)ccc3o2)CC1` [Compound 191, 2-(4-[[4-nitro-3-(trifluoromethyl)phenyl]amino]phenoxy)-1-(4-[[5-(trifluoromethyl)-1-benzofuran-2-yl]carbonyl]piperazin-1-yl)ethan-1-one], with not below 90%.
Take `CN(c1ccc(C#N)c(C(F)(F)F)c1)[C@H]1CC[C@H](OCC(=O)N2CCN(c3ccc4cc(F)ccc4c3)CC2)CC1` [Compound 293, 4-[(4-{2-[4-(6-fluoro-naphthalen-2-yl)-piperazin-1-yl]-2-oxo-ethoxy}-cyclohexyl)-methyl-amino]-2-trifluoromethyl-benzonitrile]: the inhibition at 5 µg/mL was not below 90%.
As for `N#Cc1ccc(N[C@H]2CC[C@H](OCC(=O)N3CCN(C(=O)C4Cc5cc(Cl)ccc5O4)CC3)CC2)cc1C(F)(F)F` (stereo partly drawn) [Compound 85, 4-(4-{2-[4-(5-chloro-2,3-dihydro-benzofuran-2-carbonyl)-piperazin-1-yl]-2-oxo-ethoxy}-cyclohexylamino)-2-trifluoromethyl-benzonitrile], the inhibition at 5 µg/mL is not below 90%.
As for `C[C@@H]1CN(Cc2nc3cc(F)ccc3s2)[C@@H](C)CN1C(=O)CO[C@H]1CC[C@H](Nc2ccc([N+](=O)[O-])c(C(F)(F)F)c2)CC1` [Compound 370, 1-[(2R,5S)-4-(5-fluoro-benzothiazol-2-ylmethyl)-2,5-dimethyl-piperazin-1-yl]-2-[4-(4-nitro-3-trifluoromethyl-phenylamino)-cyclohexyloxy]-ethanone], the inhibition at 5 µg/mL is not below 90%.
As for `C[C@@H]1CN(C(=O)CO[C@H]2CC[C@H](Nc3ccc([N+](=O)[O-])c(C(F)(F)F)c3)CC2)C[C@H](C)N1c1ccc2cc(F)ccc2n1` [Compound 381, 1-[(3S,5R)-4-(6-fluoro-quinolin-2-yl)-3,5-dimethyl-piperazin-1-yl]-2-[4-(4-nitro-3-trifluoromethyl-phenylamino)-cyclohexyloxy]-ethanone], the inhibition at 5 µg/mL is not below 90%.
As to `O=C(COc1ccc2ccc([N+](=O)[O-])c(C(F)(F)F)c2c1)N1CCN(c2ccc3cc(C(F)(F)F)ccc3n2)CC1` [Compound 131, 2-[[7-nitro-8-(trifluoromethyl)naphthalen-2-yl]oxy]-1-[4-[6-(trifluoromethyl)quinolin-2-yl]piperazin-1-yl]ethan-1-one], the inhibition at 5 µg/mL was not below 90%.
Turning to `O=C(CO[C@H]1CC[C@H](Nc2ccc([N+](=O)[O-])c(C(F)(F)F)c2)CC1)N1CCN(Cc2cc3c(Cl)cc(Cl)cc3o2)CC1` [Compound 318, 2-[(4-[[4-nitro-3-(trifluoromethyl)phenyl]amino]cyclohexyl)-oxy]1-[4-(4,6-dichlorobenzofuran-2-ylmethyl)piperazin-1-yl]ethan-1-one], the inhibition at 5 µg/mL is not below 90%.
Then `N#Cc1ccc(N[C@H]2CC[C@H](OCC(=O)N3CCN(Cc4nc5cc(Cl)ccc5o4)CC3)CC2)cc1C(F)(F)F` [Compound 288, 2-[(4-[[4-cyano-3-(trifluoromethyl)phenyl]amino]cyclohexyl)-oxy]1-[4-(5-chlorobenzoxazol-2-ylmethyl)piperazin-1-yl]ethan-1-one], with not below 90%.
Consider `N#Cc1ccc(N[C@H]2CC[C@H](OCC(=O)N3CCN(Cc4oc5ccc(Cl)cc5c4Cl)CC3)CC2)cc1C(F)(F)F` [Compound 315, 4-(4-{2-[4-(3,5-dichloro-benzofuran-2-ylmethyl)-piperazin-1-yl]-2-oxo-ethoxy}-cyclohexylamino)-2-trifluoromethyl-benzonitrile], for which the inhibition at 5 µg/mL was not below 90%.
In the case of `O=C(COC1CCC(Oc2ccc([N+](=O)[O-])c(C(F)(F)F)c2)CC1)N1CCN(Cc2nc3cc(C(F)(F)F)ccc3s2)CC1` (stereo not drawn) [Compound 311, 2-[4-(4-nitro-3-trifluoromethyl-phenoxy)-cyclohexyloxy]-1-[4-(5-trifluoromethyl-benzothiazol-2-ylmethyl)-piperazin-1-yl]-ethanone], the inhibition at 5 µg/mL is not below 90%.
For `O=C(NCCO[C@H]1CC[C@H](Nc2ccc([N+](=O)[O-])c(C(F)(F)F)c2)CC1)C(=O)Nc1ccc2ccccc2n1` [Compound 238, N^1-(2-(-4-(4-nitro-3-(trifluoromethyl)phenylamino)cyclohexyloxy)ethyl)-N^2-(quinolin-2-yl)oxalamide], the inhibition at 5 µg/mL was not below 90%.
Under `O=C(COc1ccc(Nc2ccc([N+](=O)[O-])c(C(F)(F)F)c2)cc1)N1CCN(CC2Cc3cc(Cl)ccc3O2)CC1` (stereo not drawn) [Compound 68, 1-[4-[(5-chloro-2,3-dihydro-1-benzofuran-2-yl)methyl]piperazin-1-yl]-2-(4-[[4-nitro-3-(trifluoromethyl)phenyl]amino]phenoxy)ethan-1-one] stands not below 90%; under `O=C(CO[C@H]1CC[C@H](Nc2ccc([N+](=O)[O-])c(C(F)(F)F)c2)CC1)N1CCN(Cc2cc3cc(Cl)cc(Br)c3o2)CC1` [Compound 321, 2-[(4-[[4-nitro-3-(trifluoromethyl)phenyl]amino]cyclohexyl)-oxy]1-[4-(5-chloro-7-bromobenzofuran-2-ylmethyl)piperazin-1-yl]ethan-1-one], not below 90%.
As to `CC(CN1CCN(c2ccc3ccccc3n2)CC1)C(=O)N1CCC(Nc2ccc([N+](=O)[O-])c(C(F)(F)F)c2)CC1` (stereo not drawn) [Compound 91, 2-methyl-1-(4-[[4-nitro-3-(trifluoromethyl)phenyl]amino]piperidin-1-yl)-3-[4-(quinolin-2-yl)piperazin-1-yl]propan-1-one], the inhibition at 5 µg/mL was not below 90%.
`O=C(CO[C@H]1CC[C@H](Nc2ccc([N+](=O)[O-])c(C(F)(F)F)c2)CC1)N1CCN(Cc2oc3ccc(F)cc3c2Cl)CC1` [Compound 312, 1-[4-(3-chloro-5-fluoro-benzofuran-2-ylmethyl)-piperazin-1-yl]-2-[4-(4-nitro-3-trifluoromethyl-phenylamino)-cyclohexyloxy]-ethanone]: the inhibition at 5 µg/mL is not below 90%.
Take `CC(Cc1cc2cc(C(F)(F)F)ccc2o1)N1CCN(C(=O)CO[C@H]2CC[C@H](Nc3ccc([N+](=O)[O-])c(C(F)(F)F)c3)CC2)CC1` (stereo partly drawn) [Compound 330, 1-[4-[1-methyl-2-[5-(trifluoromethyl)benzofuran-2-yl]ethyl]piperazin-1-yl]-2-[4-[4-nitro-3-(trifluoromethyl)anilino]cyclohexoxy]ethanone]: the inhibition at 5 µg/mL is not below 90%.
For `O=C(NCCO[C@H]1CC[C@H](Nc2ccc([N+](=O)[O-])c(C(F)(F)F)c2)CC1)C(=O)Nc1ccc2cc(C(F)(F)F)ccc2n1` [Compound 240, N^1-(2-(-4-(4-nitro-3-(trifluoromethyl)phenylamino)cyclohexyloxy)ethyl)-N^2-(6-(trifluoromethyl)quinolin-2-yl)oxalamide], the inhibition at 5 µg/mL was not below 90%.
Regarding `O=C(NCCO[C@H]1CC[C@H](Nc2ccc([N+](=O)[O-])c(C(F)(F)F)c2)CC1)C(=O)Nc1ccc2cc(C(F)(F)F)ccc2c1` [Compound 173], the inhibition at 5 µg/mL is not below 90%.
Regarding `O=[N+]([O-])c1ccc(N[C@H]2CC[C@H](OCC(=S)N3CCN(c4ccc5cc(F)ccc5n4)CC3)CC2)cc1C(F)(F)F` [Compound 264, 1-[4-(6-fluoro-quinolin-2-yl)-piperazin-1-yl]-2-[4-(4-nitro-3-trifluoro-methyl-phenylamino)-cyclohexyloxy]-ethanethione], the inhibition at 5 µg/mL was not below 90%.
For `O=C(CO[C@H]1CC[C@H](Nc2ccc([N+](=O)[O-])c(C(F)(F)F)c2)CC1)N1CCN(C(=O)c2nc3cc(C(F)(F)F)ccc3s2)CC1` [Compound 338, 2-[(4-[[4-nitro-3-(trifluoromethyl)phenyl]amino]cyclohexyl)-oxy]1-[4-[5-(trifluoromethyl)benzothiazole-2-carbonyl]piperazin-1-yl]ethan-1-one], the inhibition at 5 µg/mL is not below 90%.
Consider `O=C(NCCO[C@H]1CC[C@H](Nc2ccc([N+](=O)[O-])c(C(F)(F)F)c2)CC1)C(=O)Nc1ccc2cc(F)ccc2n1` [Compound 239, N^1-(6-fluoroquinolin-2-yl)-N^2-(2-(-4-(4-nitro-3-(trifluoromethyl)phenylamino)cyclohexyloxy)ethyl)oxalamide], for which the inhibition at 5 µg/mL was not below 90%.
With `C[C@@H]1CN(C(=O)CO[C@H]2CC[C@H](Nc3ccc([N+](=O)[O-])c(C(F)(F)F)c3)CC2)C[C@H](C)N1Cc1ccc2cc(C(F)(F)F)ccc2c1` [Compound 374, 1-[(3S,5R)-3,5-dimethyl-4-(6-trifluoromethyl-naphthalen-2-ylmethyl)-piperazin-1-yl]-2-[4-(4-nitro-3-trifluoromethyl-phenylamino)-cyclohexyloxy]-ethanone], the inhibition at 5 µg/mL is not below 90%.
Consider `O=C(CO[C@H]1CC[C@H](Nc2ccc(S(=O)(=O)C(F)(F)F)cc2)CC1)N1CCN(c2nc3cc(C(F)(F)F)ccc3s2)CC1` [Compound 364, 2-[4-(4-trifluoromethanesulfonyl-phenylamino)-cyclohexyloxy]-1-[4-(5-trifluoromethyl-benzothiazol-2-yl)-piperazin-1-yl]-ethanone], for which the inhibition at 5 µg/mL was not below 90%.
With `O=C(NCCO[C@H]1CC[C@H](Nc2ccc([N+](=O)[O-])c(C(F)(F)F)c2)CC1)C(=O)Nc1ccc2cc(Cl)ccc2n1` [Compound 241, N^1-(6-chloroquinolin-2-yl)-N^2-(2-(-4-(4-nitro-3-(trifluoromethyl)phenylamino)cyclohexyloxy)ethyl)oxalamide], the inhibition at 5 µg/mL is not below 90%.
